# Earlier results as cited in paper PMC10526633 (Structure (London, England : 1993), 2023).
# Columns and labels:
# [1] = test system: HER2 signaling; details: highest tested concentration of 20 μM
# [2] = test system: SKBr3 cells; details: highest tested concentration of 20 μM
# [3] = test system: GRP94
# [4] = test system: N62Q mutant cells; details: N62Q GRP94 mutant cells
Compound,Effect on HER2 signaling in SKBr3 cells [1],Cytotoxicity in SKBr3 cells [2],"Effect of limited sugar removal on ligand binding to GRP94 ([3]; EndoH, retains N-acetylglucosamine attached to Asn, ref Yan et al. cell Reports 2020)",Effect of N217A mutation on ligand binding ([3]; N217A mutant of GRP94),"Effect of complete deglycosylation on GRP94 binding to ligand ([3]; PNGase F, ref Yan et al. cell Reports 2020)",Sensitivity of N62Q mutant cells to ligand [4]
"COC(=O)c1c(O)cc(O)c(Cl)c1CCc1nccn1Cc1ccccc1 [BnIm, methyl 2-(2-(1-benzyl-1H-imidazol-2-yl)ethyl)-3-chloro-4,6-dihydroxybenzoate]",no effect,no cytotoxicity,,,,
CC(C)NCCCn1c(Sc2cc(Cl)cc(Cl)c2)nc2c(N)ncnc21 [PU-WS13],,,partially reduces,no effect,abolishes,insensitivity
